Test results reported in article PMC10537538, “Preclinical Investigation of a Lipoglycopeptide Dry Powder Inhalation Therapy for the Treatment of Pulmonary MRSA Infection” (Pharmaceutics, 2023).
Counter-ions that a name gives are not always drawn. Like-named read-outs stand apart in the source and are kept apart here. Each block holds one molecule with its values, some of them ahead of it.

How the values were obtained:
[1] = cited from earlier work
[2] = test system: MRSA ATCC BAA-1556 (USA300); test: MIC by CLSI broth microdilution, MRSA; assay type: cell-based, Staphylococcus aureus; details: for MIC: Staphylococcus aureus, read-out: MRSA MIC
From the text: (§1) In Vitro Susceptibility. Clinical and Laboratory Standards Institute (CLSI) guidelines were followed for the determination of the minimum inhibitory concentration (MIC), using cation-adjusted Mueller Hinton broth microdilution at a starting inoculum level of 5 × 10^5 colony forming units (CFUs) per mL [24, 25]. MIC was read by optical density on a BioTek Synergy H1 plate reader (BioTek, Winooski, VT, USA) at 595 nm. Strains used were MRSA ATCC BAA-1556 (USA300, SCCmecIV, pvl^+) and MSSA ATCC 29213 (American Type Culture Collection, Manassas, VA, USA). MIC data are reported as a range to reflect the fact that the value is determined using step dilution.

MSSA ATCC 29213 = test: MIC by CLSI broth microdilution, MSSA; assay type: cell-based; details: Staphylococcus aureus, read-out: MSSA MIC
From the text: as §1

Compound: CCCCCCCCCCNCCN[C@@]1(C)C[C@H](O[C@H]2[C@H](Oc3c4cc5cc3Oc3ccc(cc3Cl)[C@@H](O)[C@@H](NC(=O)[C@@H](CC(C)C)NC)C(=O)N[C@@H](CC(N)=O)C(=O)N[C@H]5C(=O)N[C@H]3C(=O)N[C@H](C(=O)N[C@H](C(=O)O)c5cc(O)c(CNCP(=O)(O)O)c(O)c5-c5cc3ccc5O)[C@H](O)c3ccc(c(Cl)c3)O4)O[C@H](CO)[C@@H](O)[C@@H]2O)O[C@@H](C)[C@H]1O [telavancin, reference compound]
- lung half-life, nebulized form ([1]; rats, inhalation of nebulized preparation): ca. 21 days

- MIC ([2]; ATCC BAA-1556 (USA300), CLSI): 0.031 to 0.063 µg/mL
- MIC (MSSA ATCC 29213; ATCC 29213, CLSI): 0.031 to 0.063 µg/mL
- pH needed to dissolve drug substance: > 9
Compound: CCCCCCCCCCNC(=O)CN[C@@]1(C)C[C@H](O[C@H]2[C@H](Oc3c4cc5cc3Oc3ccc(cc3Cl)[C@@H](O)[C@@H](NC(=O)[C@@H](CC(C)C)NC)C(=O)N[C@@H](CC(N)=O)C(=O)N[C@H]5C(=O)N[C@H]3C(=O)N[C@H](C(=O)N[C@H](C(=O)O)c5cc(O)cc(O)c5-c5cc3ccc5O)[C@H](O)c3ccc(c(Cl)c3)O4)O[C@H](CO)[C@@H](O)[C@@H]2O)O[C@@H](C)[C@H]1O [RV94, N^van-2-amino-N-decylacetamide vancomycin]
- potency relative to vancomycin (fold more potent) ([2]; MIC, MSSA and MRSA isolates): ca. 15 fold
- lung half-life, nebulized form ([1]; rat, in vivo, inhaled or intranasal): approximately 4.5 days

Compound: CN[C@H](CC(C)C)C(=O)N[C@H]1C(=O)N[C@@H](CC(N)=O)C(=O)N[C@H]2C(=O)N[C@H]3C(=O)N[C@H](C(=O)N[C@H](C(=O)O)c4cc(O)cc(O)c4-c4cc3ccc4O)[C@H](O)c3ccc(c(Cl)c3)Oc3cc2cc(c3O[C@@H]2O[C@H](CO)[C@@H](O)[C@H](O)[C@H]2O[C@H]2C[C@](C)(N)[C@H](O)[C@H](C)O2)Oc2ccc(cc2Cl)[C@H]1O [Vancomycin, Vancomycin HCl, reference compound]
- MIC [2]: 0.5 to 2 µg/mL
- MIC (MSSA ATCC 29213): 0.5 to 1 µg/mL
